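Assay format: 96-well plates, 48-hour exposure. The concentration for 50% growth inhibition is given as GI50. TGI: total growth inhibition.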
Assays:
Assay in all cases: NCI-60 cell line screen, 48 h
[1] = test system: NCI-H23 lung
[2] = test system: SK-OV-3 ovarian
[3] = test system: CCRF-CEM leukemia
[4] = test system: KM12 colon
[5] = test system: A498 renal
[6] = test system: PC-3 prostate
[7] = test system: MDA-MB-435
[8] = test system: ACHN renal
[9] = test system: MOLT-4 leukemia
[10] = test system: EKVX NSCLC

In the case of `COc1cc(/C=C2\CN(C(=O)CCN3CCC(=NO)CC3)C/C(=C\c3cc(OC)c(OC)c(OC)c3)C2=O)cc(OC)c1OC`, the GI50 [1] is reported as 342 nM, the TGI [1] is reported as 1.39 µM and the GI50 [2] is reported as 1870 nM. It also gave a TGI [2] of 4.78 µM, a GI50 [3] of 266 nM and a TGI [3] of 1.6 µM. It also gave a GI50 [4] of 263 nM, a TGI [4] of 731 nM and a GI50 [5] of 0.658 µM. For the same compound, the TGI [5] was 2.07 µM, the GI50 [6] was 298 nM and the TGI [6] was 1120 nM. The GI50 [7] was 239 nM, the TGI [7] was 0.637 µM and the GI50 [8] was 837 nM. The TGI [8] was 2510 nM, the GI50 [9] was 328 nM and the TGI [9] was 12.1 µM. The GI50 [10] was 1820 nM and the TGI [10] was 4.81 µM.
For `CCCCCCNC(=O)n1cc(F)c(=O)[nH]c1=O`, the GI50 [1] was 6260 nM, the TGI [1] was 49.1 µM and the GI50 [2] was 11100 nM. It also gave a TGI [2] of 91.1 µM, a GI50 [3] of 3200 nM and a TGI [3] of 26.7 µM. The GI50 [4] was 4430 nM, the TGI [4] was > 100000 nM and the GI50 [5] was 18 µM. For the same compound, the TGI [5] was > 100 µM, the GI50 [6] was 10100 nM and the TGI [6] was 27300 nM. The GI50 [7] was 1210 nM, the TGI [7] was 24.2 µM and the GI50 [8] was 4860 nM. The TGI [8] was 23000 nM, the GI50 [9] was 7280 nM and the TGI [9] was 44.2 µM. For the same compound, the GI50 [10] was 21100 nM and the TGI [10] was > 100 µM.
With `CCN(CC)CCOc1c(OC)c(Br)cc2c(C)c(C(=O)OC)oc12` the GI50 [1] was 1120 nM, the TGI [1] was 2.68 µM and the GI50 [2] was 1290 nM. For the same compound, the TGI [2] was 4.1 µM, the GI50 [3] was 154 nM and the TGI [3] was 0.72 µM. The GI50 [4] was 569 nM, the TGI [4] was 1980 nM and the GI50 [5] was 7.39 µM. The TGI [5] was 14.6 µM, the GI50 [6] was 368 nM and the TGI [6] was 1030 nM. For the same compound, the GI50 [7] was 1030 nM, the TGI [7] was 2.62 µM and the GI50 [8] was 899 nM. The TGI [8] was 2080 nM, the GI50 [9] was 374 nM and the TGI [9] was 1.23 µM. The GI50 [10] was 1550 nM and the TGI [10] was 5.01 µM.
With `CNCCNc1nc2ccccc2c2c(=O)c3cc(OC)ccc3sc12` the GI50 [1] was 1620 nM, the TGI [1] was 3.05 µM and the GI50 [2] was 1820 nM. It also gave a TGI [2] of 3.97 µM, a GI50 [3] of 1760 nM and a TGI [3] of 3.46 µM. For the same compound, the GI50 [4] was 1800 nM, the TGI [4] was 3480 nM and the GI50 [5] was 2.12 µM. It also gave a TGI [5] of 6.8 µM, a GI50 [6] of 1470 nM and a TGI [6] of 2940 nM. For the same compound, the GI50 [7] was 1720 nM, the TGI [7] was 3.13 µM and the GI50 [8] was 1580 nM. The TGI [8] was 2930 nM, the GI50 [9] was 1770 nM and the TGI [9] was 3.53 µM. For the same compound, the GI50 [10] was 1690 nM and the TGI [10] was 3.16 µM.
With `Nc1cc2[nH]cnc2c(=O)[nH]1` the TGI [1] was > 300 µM, the TGI [2] was > 188 µM and the TGI [3] was > 300 µM. For the same compound, the TGI [4] was > 300000 nM, the TGI [5] was 298 µM and the TGI [6] was > 300000 nM. The TGI [7] was > 300 µM, the TGI [8] was > 300000 nM and the TGI [9] was > 300 µM. The TGI [10] was > 300 µM.

From PubChem BioAssay (NCI)
